Assay results reported in patent US11771660B2, “Flavonoid polyphenol drug self-emulsifying composition, preparation method therefor, pharmaceutical composition thereof and application thereof” (priority 2019, dated 2023).

How the values were obtained:
[1] = Plasma pharmacokinetics after gavage in rats; type: in vivo, Sprague-Dawley rats; conditions: gavage 40 mg/kg
Method: Test group B: The self-emulsifying composition of baicalein encapsulating baicalein ingredient in Comparative Example 1 (hereinafter labeled OBA-SMEDDS) was administered.
Test group C: Baicalein ingredient (hereinafter labeled BA) was administered.
Sprague-Dawley rats (male, 200 g) were fed for one week before tests, forbidden to eat rather than drink the night before the tests, and supplied with water freely during the tests.
15 rats were randomly divided into three groups (test group A, test group B and test group C, separately), with 5 rats in each group. Gavage (2-3 mL) was provided at a dose of 40 mg/kg. 0.3 mL of blood was taken from the retro-orbital venous plexus at 5, 15, 30, 45, 60 and 75 min and 3, 6, 8, 10, 12 and 24 h after administration, placed in a pre-heparinized 1.5 mL conical centrifuge tube, and centrifuged at 4000 r/min for 15 min. The upper plasma was aspirated, stored in the refrigerator at −80° C., and thawed at normal temperature before determination.
Treatment of plasma samples: 100 μL of plasma was taken, placed in a 1.5 mL conical centrifuge tube, added with 10 μL of ascorbic acid (200 mg/mL), 20 μL of an internal standard solution (500 ng/ml) and 300 μL of methanol, vortexed for 60 s, and centrifuged at 12000 r/min for 10 min. Then, the supernatant was aspirated, placed in a centrifuge tube, concentrated through centrifugation to remove the solvent (40° C.), added with 200 μL of methanol:water (80:20) to be dissolved, vortexed for 30 s, and centrifuged at 12000 r/min for 5 min. 20 μL of the supernatant was injected and the plasma concentration was determined under the following chromatography conditions (liquid chromatography-mass spectrometry).
Chromatography column: Agilent ZORBAX SB C18 column (250 mm×4.6 mm, […]);
Column temperature: 25° C.;
Mobile phase (gradient elution, see Table 11): acetonitrile-0.1% formic acid as an eluent.
Electrospray ion source (ESI), positive ion mode, multiple reaction monitoring (MRM);
Other parameters: an atomizer pressure of 40 psi, a drying gas flowrate of 9 L/min, a drying gas temperature of 350° C., a capillary voltage of 4000V and a split ratio of 1:2.
MRM detection ion pair for quantification: baicalin [M+H]+ 447.0→271.1;

[2] = Saturated solubility in oil phase and blank self-emulsifying concentrate; type: physicochemical; conditions: room temperature 24 hours
Method: They were placed at room temperature for 24 hours to observe whether the drug was precipitated. If no drug was precipitated, an appropriate amount of each phospholipid complex was added and operated in the same manner until the drug was precipitated. The supernatant was taken and centrifuged at 12000 r/min for 20 min. Then, the supernatant was taken and the saturated solubility of each flavonoid polyphenol drug-phospholipid complex in the oil phase and the blank self-emulsifying concentrate was determined by the preceding HPLC method.

[3] = male, Sprague-Dawley, rat, po, baicalein in plasma

O=c1cc(-c2ccccc2)oc2cc(O)c(O)c(O)c12 [BA, baicalein]
AUC (0-t) ([1]; baicalein in plasma): 15864.8 µg·min/L | AUC (0-∞) ([1]; baicalein in plasma): 15880.4 µg·min/L | Cmax [1, 3]: 99.1 ± 42 ng/mL | Tmax [1, 3]: 1.25 h | MRT last ([1]; male, Sprague-Dawley, rat, po, baicalein in plasma, read-out: MRT (0-t) (converted)): 4 h | MRT inf ([1]; male, Sprague-Dawley, rat, po, baicalein in plasma, read-out: MRT (0-∞) (converted)): 4.01 h | bioavailability ([1]; male, Sprague-Dawley, rat, po, relative to baicalein ingredient, based on baicalein in plasma): 100% | saturated solubility in the blank self-emulsifying concentrate (drug load of the self-emulsifying composition) ([2]; ethyl oleate:labraosol:transcutol HP 2:5:3): 20 mg/g | saturated solubility in oil ([2]; oil phase ethyl oleate): 0.3 mg/g
